The subject of data set [1] is L-type Ca^2+ current (ICa). Description: calcium current (ICa) changes in ventricular myocytes with NCX inhibitor. Type of data set: cell-based, canine. From the text:
In this example the data from publication by Oravecz et.al. was used, where authors have attempted to clarify the underlying mechanism of the limited inotropic action of selective sodium-calcium exchange (NCX) inhibition by a novel inhibitor molecule (ORM-10962) on canine ventricular myocytes. […] The forward mode operation of NCX is considered as the main route of Ca^2+ removal balancing the Ca^2+influx generated by the L-type Ca^2+ current (ICa) and the reverse mode NCX activity. […] These experimental data have been analyzed in the present invention. […] In order to perform time convolution directly, the concentration of ORM-10962 should have been known in the target compartment, but here only the effect size (current measured) has been reported.

Data set [2] deals with L-type Ca^2+ current (ICa). The note with it: steady-state conditions; cited from earlier work.
Data set [3] in a line: caffeine transport in membrane-separated chip, control tests (bare membrane). Type of data set: in vitro ADME. As to conditions: 0.25 mg/mL. As for the experimental part:
In this example data of caffeine transport measurements disclosed in publication are analyzed with a new method. […] The membrane had 0.4 micrometer pore size and was made of polyester track etched (PETE) insert, which was used bare (control tests) and with a double layer of cells (actual tests): human umbilical vein endothelial cells (HUVECs) and BeWo cells (derived from a human choriocarcinoma) to represent the endothelium in the fetal interface and the epithelium in the maternal interface. The mean data used are from three independent experiments.

Data set [4] deals with placental barrier (HUVECs and BeWo cells). Nature of the data set: caffeine transport in placenta-on-a-chip, actual tests (double cells layer). As to conditions: 0.25 mg/mL. Type of data set: in vitro ADME, human.
A short description of data set [5]: clinical. The note with it: human, in vivo. From the text:
The method used in publication relies on fractional order derivatives with a multi-compartmental model using Laplace transform, which is not a common operation a lab technician usually able to perform. […] The resulting simplified equation for time changes of the concentration in the blood plasma (=the target compartment in the terminology of the recent invention), designated as c2(t) in [6], was expressed with six unknown parameters (d, k02, k21, α1, α2 and the lag time) as:
Clinical data of Popovic et al. have been used representing evaluation of diclofenac pharmacokinetics in a small number of healthy adults during a bioequivalence trial. In the spirit of the present invention, the data from were taken as cumulative concentration of diclofenac, averaged for all 12 patients. Here the initial mass of the drug was known of 100 mg, and the instant volume of distribution (VOD-2) was directly quantifiable by diving this mass for the measured cumulative concentration analyzed (Table 2).

For data set [6] the following is noted: cited from earlier work; for Tested c2(t): 100 mg, mean of 12, cumulative.
A short description of data set [7]: gentamicin elution from coated Ti-6Al-4V disks into 2 mL distilled water at 37° C. Type of data set: physicochemical. The note with it: for c2(t), gentamicin concentration in the target compartment: distilled water 37° C.; for Remained in the coating: of 1395 μg/disk. As for the experimental part:
In this example the most detailed in vitro testing conditions have been used. Disk of diameter 15.5 mm and thickness of 2 mm made of medical titanium Grade 5 (Ti-6Al-4V) alloy were uniformly coated with a mixture of 1395 μg/disk gentamicin palmitate and 3745 μg/disk palmitic acid in triplicate (9 disks=3 disks×3 repetitions).
Disks were placed into a glass tube filled with 2 mL distilled water at constant temperature 37° C. and aliquots of 0.050 mL were periodically extracted without refilling the remining volume. The concentration of gentamicin in these samples was measured in mg/L and based on this, the amount of gentamicin in the remaining solution was calculated. The procedure was repeated until 336 h have been accumulated, and the average of three measurements has been calculated, Table 5.
After 336 hours of measurements, totally 0.5 mL of liquid is removed and about 60 μg of the drug is taken off the system. This represents of 25% of the total liquid volume and about 23.5% of the total drug released from the disk. With unknown solubility from the beginning, it is difficult to say how this drug removal affects the solubility rate, diffusion rate (concentration gradient uneven) and about the release kinetics in general (besides just making a curve fitting). As liquid is being periodically removed, the VOD-2 in the target compartment is getting smaller from 2 mL to 1.5 mL (being not constant) and thus the concentration of gentamicin there (c2(t)) is affected too.
For the method of the present invention, exact VOD-1 for the source compartment has been first calculated. For the density of gentamicin palmitate of 1.5 g/cc and palmitic acid of 0.86 g/cc, taking into account the disk surface area of 188.69 mm^2, the expected dense coating thickness is about 28 μm at the beginning of the test, leading to the VOD-1 value (for the source compartment) of 5.285 mm^3. Since VOD-2 is not constant due to aliquots takeoffs, the coefficient of partition is not constant either and will change with time, approaching an equilibrium value (Leq).

The mark [8] stands for this setting: least-squares fit in [6], slow release 100 mg tablet.

Read-outs that look alike come from different tables or passages of the source.

On to `O=C(CN1CCC(O)CC1)Nc1ccc(Oc2ccc3c(c2)CCC(c2ccccc2)O3)nc1` (stereo not shown) [ORM-10962], for which the “efficacy parameter LCa” value in data set [1] (ICa change per μM of the added drug) was 42.123 nA/μM. For the same compound, in data set [1] (calcium current in myocytes), the characteristic time is reported as 1.69 s and the “non-dimensional transport constant K” value is given as 104.5. In addition, in data set [2], the “reduction of ICa amplitude in the presence vs. absence of the inhibitor” value is given as “significantly greater”.
As to `Cn1c(=O)c2c(ncn2C)n(C)c1=O` [caffeine], in data set [3], the “Characteristic time τ” value turned out to be 40 min, the “Transport constant K” value came out at 162.77 and the “kinetic parameter β” value is listed as 2.0-2.9. Further, the “Coefficient of partition Leq” value in data set [3] (Control (no cells)) is given as 5.61. Also, in data set [4] (Actual (double cells layer)), the “Coefficient of partition Leq” value is given as 35.5. Besides, in data set [4] (human), the “Characteristic time τ” value stood at 27 min, the “Transport constant K” value was determined as 6697.34 and the “kinetic parameter β” value is listed as 3.2-5.4.
One may read the Vd as a proportionality between amount in the body and measured concentration, not a real space. Consider `O=C(O)Cc1ccccc1Nc1c(Cl)cccc1Cl` [diclofenac], for which the “kinetic parameter β” value in data set [5] is more than 1; in data set [5] (1.5 h), 5.538; in data set [5] (2 h) it was 4.884; in data set [5] (2.5 h) it was 4.480; in data set [5] (3 h), 4.256; in data set [5] (4 h), 3.875. Also, the “kinetic parameter β” value stood at 3.388 in data set [5] (6 h), 3.266 in data set [5] (8 h), 3.471 in data set [5] (12 h) and 3.388 in data set [5] (24 h). This compound returned a Vd at 1 h in data set [5] (100 mg) of 522 L. Also, the Vd at 1.5 h in data set [5] (100 mg) was 56.1 L. Moreover, the Vd at 2 h in data set [5] (100 mg) came out at 21.2 L. The compound further showed a Vd at 2.5 h in data set [5] (100 mg) of 13.7 L. Moreover, the volume of distribution (Vd) at 3 h in data set [5] (100 mg) was 10.5 L. For the same compound, the volume of distribution (Vd) at 4 h in data set [5] (100 mg) came out at 8.97 L. In data set [5] (100 mg), this compound returned a Vd at 6 h of 8.11 L. The Vd at 8 h in data set [5] (100 mg) was 7.78 L. In data set [5] (100 mg), this compound gave a Vd at 12 h of 7.75 L. This compound displayed a Vd at 24 h in data set [5] (100 mg) of 7.69 L. For the same compound, the “Calculated c2(t)” value in data set [5] (1 h) is listed as 0.141 mg/mL; in data set [5] (1.5 h), 1.216 mg/mL; in data set [5] (2 h), 3.818 mg/mL; in data set [5] (2.5 h), 6.832 mg/mL; in data set [5] (3 h), 9.093 mg/mL; in data set [5] (4 h), 11.349 mg/mL. For the same compound, the “Calculated c2(t)” value in data set [5] (6 h) was 12.560 mg/mL; in data set [5] (8 h), 12.846 mg/mL; in data set [5] (12 h), 13.001 mg/mL; in data set [5] (24 h), 13.073 mg/mL. The “Dr (generalized Deborah rate number)” value in data set [5] (1.5 h) is 644.65 ×10^6; in data set [5] (2 h), 244.03 ×10^6; in data set [5] (2.5 h), 124.66 ×10^6; in data set [5] (3 h), 75.67 ×10^6; in data set [5] (4 h), 37.46 ×10^6; in data set [5] (6 h), 16.35 ×10^6. Further, the “Dr (generalized Deborah rate number)” value in data set [5] (8 h) is on record as 10.07 ×10^6; in data set [5] (12 h) it was 5.80 ×10^6; in data set [5] (24 h) it was 3.07 ×10^6. For the same compound, the “Tested c2(t)” value in data set [6] (1.0 h) was 0.192 mg/mL; in data set [6] (1.5 h), 1.783 mg/mL; in data set [6] (2.0 h), 4.725 mg/mL; in data set [6] (2.5 h), 7.283 mg/mL; in data set [6] (3 h) it was 9.500 mg/mL; in data set [6] (4 h), 11.150 mg/mL. Moreover, the “Tested c2(t)” value in data set [6] (6 h) is 12.333 mg/mL; in data set [6] (8 h) it was 12.858 mg/mL; in data set [6] (12 h), 12.900 mg/mL; in data set [6] (24 h), 13.000 mg/mL. The “fitted parameter d of fractional compartmental model” value in data set [6] (setting [8]) is listed as 22.79±16.41. Also, the “fitted parameter k02 of fractional compartmental model” value in data set [6] (setting [8]) is given as 1.51±1.05.
Turning to gentamicin, the “Sample gentamicin amount, Average” value in data set [7] (average of S1-S3, 1 h) worked out at 187.2 µg; in data set [7] (average of S1-S3, 3 h), 221.2 µg; in data set [7] (average of S1-S3, 6 h), 171.9 µg; in data set [7] (average of S1-S3, 24 h), 191.1 µg; in data set [7] (average of S1-S3, 48 h) it was 195.1 µg; in data set [7] (average of S1-S3, 72 h), 189.4 µg. Also, the “Sample gentamicin amount, Average” value was found to be 199.9 µg in data set [7] (average of S1-S3, 96 h); 241.0 µg in data set [7] (average of S1-S3, 168 h); 247.5 µg in data set [7] (average of S1-S3, 264 h); 255.3 µg in data set [7] (average of S1-S3, 336 h). Besides, the “c2(t), gentamicin concentration in the target compartment” value in data set [7] (1 h) came to 93.6 mg/L; in data set [7] (3 h), 113.4 mg/L; in data set [7] (6 h), 90.5 mg/L; in data set [7] (24 h), 103.3 mg/L; in data set [7] (48 h) it was 108.4 mg/L; in data set [7] (72 h), 108.3 mg/L. Further, the “c2(t), gentamicin concentration in the target compartment” value in data set [7] (96 h) stood at 117.6 mg/L; in data set [7] (168 h), 146.1 mg/L; in data set [7] (264 h) it was 154.7 mg/L; in data set [7] (336 h), 164.7 mg/L. In addition, the “Remained in the coating” value in data set [7] (1 h) is 1207.8 µg; in data set [7] (3 h) it was 1173.8 µg; in data set [7] (6 h), 1223.1 µg; in data set [7] (24 h), 1203.9 µg; in data set [7] (48 h), 1199.9 µg; in data set [7] (72 h) it was 1205.6 µg. Further, the “Remained in the coating” value is 1195.1 µg in data set [7] (96 h), 1154.0 µg in data set [7] (168 h), 1147.5 µg in data set [7] (264 h) and 1139.7 µg in data set [7] (336 h).
gentamicin palmitate: the “kinetic parameter β” value in data set [7] (not constant, FIG. 12) was “well below unity”.
